Test system: PAX5 gene expression in methylated GC and CRC cell lines
Test: Demethylation treatment with 5-Aza; PAX5 expression by semiquantitative RT-PCR
Assay type: cell-based, human
Details: 2 μM 5-Aza for 5 days; AGS, MKN28, KatoIII, HCT116, SW620 and SW480
Method: Semiquantitative RT-PCR was performed in a total volume of 25 μL reaction containing GeneAmp 1×PCR Buffer II (Applied Biosystems), 2.5 mM MgCl2, 200 μM each of dNTP, 200 nM each of primers, 0.5 U of AmpliTaq Gold DNA polymerase (Applied Biosystems) and 30˜50 ng cDNA. […] The PCR bands were visualized under ultraviolet light and photographed. The expression of the target gene was normalized by the expression of house keeping gene β-actin, which served as an internal control. […] Cells were then treated with 2 μM 5-aza-2′-deoxycytidine (“5-Aza”) (Sigma-Aldrich) for 5 days. The 5-Aza was replenished every day.

Question: With `Nc1ncn([C@H]2C[C@H](O)[C@@H](CO)O2)c(=O)n1` [5-Aza, 5-aza-2′-deoxycytidine] as the molecule, how does the “PAX5 gene expression after 5-Aza demethylation treatment (RT-PCR)” value read?
Answer: restore expression
